Here are results for three molecules from BindingDB's records for patent US20240043427 (Gilead Sciences, 2024).

Chain of 5'-nucleotidase (P21589 whole entry): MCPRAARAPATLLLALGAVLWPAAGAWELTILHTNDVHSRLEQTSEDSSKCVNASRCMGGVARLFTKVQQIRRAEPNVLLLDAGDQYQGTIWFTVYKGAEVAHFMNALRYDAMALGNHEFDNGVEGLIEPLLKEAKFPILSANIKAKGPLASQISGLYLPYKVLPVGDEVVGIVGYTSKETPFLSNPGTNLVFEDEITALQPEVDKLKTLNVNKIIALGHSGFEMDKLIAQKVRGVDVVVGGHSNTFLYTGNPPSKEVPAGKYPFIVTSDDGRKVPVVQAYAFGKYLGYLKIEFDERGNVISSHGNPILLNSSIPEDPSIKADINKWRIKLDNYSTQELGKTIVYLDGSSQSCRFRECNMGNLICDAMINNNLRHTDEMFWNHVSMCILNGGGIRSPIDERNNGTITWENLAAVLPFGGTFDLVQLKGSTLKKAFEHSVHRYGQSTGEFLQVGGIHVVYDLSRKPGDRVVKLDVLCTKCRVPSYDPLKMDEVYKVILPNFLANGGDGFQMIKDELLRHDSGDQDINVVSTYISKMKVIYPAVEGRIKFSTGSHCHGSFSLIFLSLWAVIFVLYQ

In the test the target is 5'-nucleotidase (Homo sapiens, UniProt P21589). In words: CD73 Biochemical IC50 Assay. As to the method:
Compound serial dilutions were pre-spotted into Thermo Nunc assay plate. 50 uL CD73 enzyme buffer (CD73 purchased from R&D system=0.6 nM, 25 mM Tris, pH 7.4, 5 mM MgCl2, 1 mM NaH2PO4) was added into the assay plate and incubate for 15 mins. […] The samples were analyzed using Rapid fire.
In turn, `O=c1[nH]cc(-c2cc(N3CC4CC(F)(C4)C3)c3nccn3n2)c(=O)[nH]1` [US20240043427, Example 579] returned an IC50 of 19.1 nM. That is a double-digit nanomolar value.

Regarding `O=c1[nH]cc(-c2cc([C@H]3C[C@@H]3c3ccc4cnn(CC(F)(F)F)c4c3F)c3ncc(F)n3n2)c(=O)[nH]1` [US20240043427, Example 630], half-maximal inhibition (IC50) required 0.32 nM.

`CC(C)(C)COc1cc(-c2c[nH]c(=O)[nH]c2=O)nn2ccnc12` [US20240043427, Example 679] showed an IC50 of 67.9 nM. This IC50 lies about 210-fold higher than the previous one.
